Source: patent US7678812B2, “Aminotetralin-derived urea modulators of vanilloid VR1 receptor” (Janssen Pharmaceutica NV, priority 2002, dated 2010)
pEC50, pIC50, pKi: −log10 of the molar value. Where “and” joins values, the source holds several entries; their conditions need not be identical. Equal values may be shown once. Read-outs that look alike come from different tables or passages of the source.

Experiments:
[1] = tested on: capsaicin-induced guinea pig bronchial ring contraction; experiment: Isolated guinea pig bronchial rings, capsaicin-induced contraction (organ bath); conditions: capsaicin concentration-response shift; 105 at 1000 nM; ±SEM
Experimental: Aminotetralin VR1 antagonists were tested for their potency to block capsaicin-induced guinea pig bronchial ring contraction in a standard in vitro organ bath assay [Tucker, 2001]. Two mm rings of bronchial tissue obtained from male guinea pigs (325 g) were suspended in normal Krebs solution between two wire hooks under an initial loading tension of 1 gram. The saline was maintained in a 5% CO2 and 95% O2 atmosphere at 37° C. in the presence of indomethacin (5 μM). A sub-maximal dose of 5-Methylfurmethide (5Mef, 1 μM) was added to each tissue to determine responsiveness using an isometric force transducer. After washout, tissues were exposed to compounds or vehicle for 30 min, treated with thiorphan (10 μM, 5% Na2CO3), and primed using KCl in increasing linear concentrations from 1 mM at 1 mM intervals until a slight increase in muscle tone was induced (˜1% of 5Mef response). […] The dose response curve was calculated as % max of the 5-Mef response and estimated pA2 were determined [Tucker, 2001]).

[2] = target: T1, hVR1 receptors (Homo sapiens, UniProt Q8NER1); experiment: [3H] RTX binding assay, human VR1; design: expressed in transfected cells; host or cells: HEK293 (membrane preparation); conditions: inhibition of [3H] RTX binding, membranes of HEK293 cells transfected with human VR1
T1 sequence (Q8NER1 whole entry): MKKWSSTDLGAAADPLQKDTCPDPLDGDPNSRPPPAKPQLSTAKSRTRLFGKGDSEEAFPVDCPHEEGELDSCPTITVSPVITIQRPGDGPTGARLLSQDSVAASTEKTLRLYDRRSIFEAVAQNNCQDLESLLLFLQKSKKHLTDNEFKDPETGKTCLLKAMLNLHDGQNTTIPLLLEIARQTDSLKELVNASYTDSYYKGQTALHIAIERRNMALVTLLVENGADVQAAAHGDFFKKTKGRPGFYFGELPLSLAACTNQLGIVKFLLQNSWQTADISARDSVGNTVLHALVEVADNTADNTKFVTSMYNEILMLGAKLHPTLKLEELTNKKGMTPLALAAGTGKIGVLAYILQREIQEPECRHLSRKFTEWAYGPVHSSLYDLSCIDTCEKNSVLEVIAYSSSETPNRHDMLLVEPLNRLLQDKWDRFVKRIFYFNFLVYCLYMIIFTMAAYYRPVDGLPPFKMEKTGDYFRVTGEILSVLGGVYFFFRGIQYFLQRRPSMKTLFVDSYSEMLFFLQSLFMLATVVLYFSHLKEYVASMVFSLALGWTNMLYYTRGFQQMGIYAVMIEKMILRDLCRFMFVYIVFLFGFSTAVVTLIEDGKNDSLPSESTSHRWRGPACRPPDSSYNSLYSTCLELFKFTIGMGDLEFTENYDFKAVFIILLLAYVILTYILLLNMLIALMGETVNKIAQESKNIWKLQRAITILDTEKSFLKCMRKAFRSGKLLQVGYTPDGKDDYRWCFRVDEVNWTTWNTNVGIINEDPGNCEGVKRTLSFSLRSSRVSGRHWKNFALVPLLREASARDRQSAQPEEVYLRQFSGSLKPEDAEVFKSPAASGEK
Experimental: Compounds of the present invention were tested for their ability to inhibit the binding of [^3H] RTX to hVR1 receptors in a [^3H] RTX binding assay as previously described (Zhang, Sui-Po. Improved ligand binding assays for vanilloid receptors. PCT Int. Appl. (2002), 29 pp. CODEN: PIXXD2 WO 0233411 A1 20020425 AN 2002:315209; Grant, Elfrida R.; Dubin, Adrienne E.; Zhang, Sui-Po; Zivin, Robert A.; Zhong, Zhong Simultaneous intracellular calcium and sodium flux imaging in human vanilloid receptor 1 (VR1)-transfected human embryonic kidney cells: a method to resolve ionic dependence of VR1-mediated cell death. Journal of Pharmacology and Experimental Therapeutics (2002), 300(1), 9-17.)
HEK293 cells were transfected with human VR1 vanilloid receptors and washed with Hank's Balanced Salt Solution, dissociated with cell dissociation buffer (Sigma), and then centrifuged at 1000×g for 5 min. Cell pellets were homogenized in cold 20 mM HEPES buffer, pH 7.4, containing 5.8 mM NaCl, 320 mM sucrose, 2 mM MgCl2, 0.75 CaCl2 and 5 mM KCl and centrifuged at 1000×g for 15 min. The resultant supernate was then centrifuged at 40000×g for 15 min. The pelleted membranes were kept in an −80° C. freezer.
Approximately 120 μg protein/ml from membranes were incubated with indicated concentrations of [^3H] RTX in 0.5 ml of the HEPES buffer (pH 7.4) containing 0.25 mg/mL fatty acid-free bovine serum albumin at 37° C. for 60 min. The reaction mixture was then cooled to 4° C., 0.1 mg α1-acid glycoprotein added to each sample and incubated at 4° C. for 15 min. The samples were centrifuged at 18500×g for 15 min. The tip of the microcentrifuge tube containing the pellet was cut off. Bound radioactivity was quantified by scintillation counting. Non-specific binding was tested in the presence of 200 nM unlabeled RTX.

[3] = target: T2, Rat VR1 (Rattus norvegicus, UniProt O35433); experiment: [3H]-RTX binding assay using rat tissue (spinal cord); design: Rat spinal cord was homogenized twice with a Polytron; from tissue; host or cells: rat spinal cord membranes; conditions: rat spinal cord membranes
T2 sequence (O35433 whole entry): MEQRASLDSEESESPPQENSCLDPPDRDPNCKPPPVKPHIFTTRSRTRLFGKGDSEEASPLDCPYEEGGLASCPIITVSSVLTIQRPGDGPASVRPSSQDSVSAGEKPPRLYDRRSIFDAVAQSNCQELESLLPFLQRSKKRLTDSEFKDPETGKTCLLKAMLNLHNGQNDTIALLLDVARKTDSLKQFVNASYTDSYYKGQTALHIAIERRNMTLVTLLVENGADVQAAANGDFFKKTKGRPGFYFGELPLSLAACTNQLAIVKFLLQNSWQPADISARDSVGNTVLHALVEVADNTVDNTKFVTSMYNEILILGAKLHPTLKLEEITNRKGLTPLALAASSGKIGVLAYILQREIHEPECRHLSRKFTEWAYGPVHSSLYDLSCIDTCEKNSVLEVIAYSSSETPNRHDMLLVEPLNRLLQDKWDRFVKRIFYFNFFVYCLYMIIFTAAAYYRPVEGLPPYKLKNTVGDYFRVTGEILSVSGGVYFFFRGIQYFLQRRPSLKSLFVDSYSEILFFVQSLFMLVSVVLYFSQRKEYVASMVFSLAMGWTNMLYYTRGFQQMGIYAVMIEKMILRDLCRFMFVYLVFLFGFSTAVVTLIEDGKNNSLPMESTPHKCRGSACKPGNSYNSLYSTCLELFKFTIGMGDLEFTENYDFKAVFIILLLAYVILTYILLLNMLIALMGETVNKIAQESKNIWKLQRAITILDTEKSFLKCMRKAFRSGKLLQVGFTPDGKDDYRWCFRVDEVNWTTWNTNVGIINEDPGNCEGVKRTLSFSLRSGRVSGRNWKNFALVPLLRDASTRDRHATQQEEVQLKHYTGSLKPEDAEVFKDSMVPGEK
Experimental: Alternatively, a binding assay using rat tissue was used. Rat spinal cord was homogenized twice with a Polytron and centrifuged at 3000 rpm for 10 min in HEPES buffer containing 20 mM HEPES, pH 7.4, NaCl 5.8 mM, sucrose 320 mM, MgCl2 2 mM, CaCl2 0.75 mM and KCl 5 mM. The supernatant was then centrifuged at 18,000 rpm for 20 min. The pellet was saved in a tube and 10 ml assay buffer was added into the tube. The pellet and buffer were mixed with a Polytron. The assay contained 120 μg/ml membrane protein and 0.3-0.6 nM [^3H]-RTX (NEN, Boston) in a total volume of 0.5 ml HEPES buffer. Following-incubation for 60 min at 37 C, the samples were cooled down on ice, and 100 mg of α-acid glycoprotein were added into the samples. After centrifugation at 13,000 rpm for 15 min, the supernatant was aspirated and the tips of tubes were cut off and placed into 6 ml vials. Data were calculated according to the equation: % inhibition=(total binding−binding)*100/(total binding−non specific binding). Ki value values were calculated using a Prism program.

[4] = tested on: carrageenan paw-induced thermal hyperalgesia; experiment: Carrageenan paw-induced thermal hyperalgesia; type: in vivo, rat; conditions: Rattus norvegicus, po
Experimental: Each rat was placed on a heated surface (51° C.) in order to measure the time necessary to elicit a response, and an initial (baseline) response time to a thermal stimuli was recorded for each animal. A response is defined as any shaking, licking, or tucking of the treated paw or jumping. Animals not treated with a test compound respond in approximately 20 seconds. The maximal exposure time permitted is 60 seconds to prevent tissue damage. Rats were injected with an irritant (e.g., 1% carrageenan solution in 0.9% saline) subcutaneously into the sub-plantar tissue of the left hind paw to stimulate an acute inflammatory reaction.
Two hours later, the response time of the animal to the thermal stimulus was evaluated and compared to the animal's baseline response time. This shorter response time was recorded as percent hyperalgesia (% H). A cut-off value for % H (usually 75%) was used during analysis to ensure that the animals were hyperalgesic. Animals were then dosed with test drug or vehicle.
At some time(s) later (typically 45 and 90 minutes), the response time of the animal to the thermal stimulus was again evaluated. For each time point, a percent reversal of hyperalgesia (% R) was calculated using the following formula: % R=(Drug Latency−Carrageenan latency)/(Baseline latency−Carrageenan latency). ED50 values were calculated from % R obtained at several drug doses.

[5] = target: T3, VR1 expressed endogenously on small rat dorsal root ganglion (DRG) neurons (Rattus norvegicus, UniProt O35433); experiment: Electrophysiologic functional assay using dissociated rat DRG cells (whole cell patch clamp); type: cell-based; conditions: compound concentration 1 uM; initial response to 0.3 uM capsaicin
T3 construct: VR1 expressed endogenously on small rat dorsal root ganglion (DRG) neurons; endogenous in cells; host or cells: dissociated DRG neurons from normal rats
T3 sequence (O35433 whole entry): as above
Experimental: Compounds 42, 95, 101, 105 and 106 were tested for their activity on VR1 expressed endogenously on small rat dorsal root ganglion (DRG) neurons. DRG neurons from normal rats were dissociated (see methods in Chaplan et al., 2003) and whole cell currents mediated by VR1 were recorded using the whole cell patch clamp technique. […] This was followed by application of 10 μM CAP in the presence of compound. […] The ability of 1 and 10 μM CAP to cause an increased current after exposure to a compound of the invention was compared to controls.

[6] = target: T1, hVR1 receptors; experiment: Broadly stimulated recombinant human VR1 functional assay (Ca2+ influx, FLIPR); type: cell-based; design: expressed in transfected cells; host or cells: HEK293
[7] = target: T2, Rat VR1; experiment: Broadly stimulated recombinant rat VR1 functional assay (Ca2+ influx, FLIPR); type: cell-based; design: expressed in transfected cells
Source text: When nociceptors are exposed to tissue damaging stimuli, VR1 receptors are activated by a plethora of stimuli. In an effort to identify potent and efficacious antagonists at human and rat VR1 that were active under conditions simulating aspects of in vivo inflammation functional assays were developed using FLIPR to determine antagonist activity against endogenous activators and stimuli likely to be present in inflammation. Cell lines were constructed that stably expressed recombinant rat VR1 (rVR1/HEK293). Cells were exposed to various stimuli at their EC80, with the exception of the low pH and DTT stimuli.
Phoshorylation by PKC. […] Cells were challenged with 300 nM PMA (˜EC80) after 3 min in the indicated antagonist.
Anandamide. Anandamide is a brain-derived cannabinoid ligand that acts as a near full agonist at VR1 at low μM concentrations [Smart, 2000 #507].
Reactive oxygen species: Disturbances in the regulatory activities of free radicals may play a role in inflammation [Winrow, 1993]. Reactive oxygen species (ROS) such as H2O2 are formed in inflamed joints.
Reducing agents: The reducing agent DTT also directly activates VR1 [Vyklicky, 2002]. Cells were challenged with 5-10 mM DTT to stimulate VR1 after 3 min incubation in compound.
Since many of our animal models were in rat, we cloned the rat VR1 and expressed it stably in HEK293 cells.

[8] = tested on: capsaicin-induced cough responses; experiment: Capsaicin-induced cough (antitussive efficacy); type: in vivo, guinea pig; conditions: codeine 25 mg/kg IP at -60 min; capsaicin aerosol 15 μM; vehicle 3.0±0.5; P<0.001
Experimental: The antitussive activity of intraperitoneally (IP) administered compound is assessed at a single dose level against capsaicin-induced cough responses as compared to positive and vehicle controls. Thirty-six male Dunkin-Hartley guinea pigs (295-590 g, mean=425 g) are randomly allocated to one of three groups (n=12 guinea pigs per group). […] Guinea pigs are dosed IP at —60 min with vehicle (15% Solutol in 5% dextrose solution); the positive control codeine (25 mg/kg), or test compound (20 mg/kg in 15% Solutol in 5% dextrose solution). Individual guinea pigs are placed in an exposure chamber with an airflow of 3 L/min at —10 min to acclimatize. […] The mean ±SEM number of capsaicin-induced cough responses recorded in vehicle pre-treated guinea pigs was 3.0±0.5. […] ANOVA statistical analysis was used to determine the level of significance.

[9] = 1.5 h, p.o., at 90 min, read-out: ED50
[10] = recombinant human VR1, stimulus low pH (pH 6.5), Ca2+ influx, read-out: IC50, Low pH
[11] = recombinant rat VR1, stimulus anandamide 10 μM, Ca2+ influx, read-out: IC50, Anandamide

O=C(Nc1cccc2cnccc12)NC1CCc2cc(F)ccc2C1Cc1ccccc1 (racemic) [Compound 38a, 1-(1-Benzyl-6-fluoro-1,2,3,4-tetrahydronaphthalene-2-yl)-3-isoquinolin-5-yl-urea]
Estimated pA2 [1]: 8.0 and 8.0±0.02
pKi [2]: 8.75

O=C(Nc1cccc2c(Cl)nccc12)NC1CCc2cc(F)ccc2C1Cc1ccccc1 (single isomer, unassigned) [Compound 105]
pKi [3]: 5.31
ED50 [4, 9]: 0.394 mg/kg
Estimated pA2 [1]: 6.2 and 6.2±0.11 and 6.2 +/− 0.11
% of the initial CAP response in presence of 1 uM CAP [5]: 0% and 8%
pKi [2]: 7.97

COc1ccc2c(c1)CCC(NC(=O)Nc1cccc3cnccc13)C2Cc1ccccc1 (centres unmarked) [Compound 33, 1-(1-Benzyl-6-methoxy-1,2,3,4-tetrahydronaphthalene-2-yl)-3-isoquinolin-5-yl-urea]
increase in intracellular Ca2+ caused by acidic solutions, anandamide, PMA and H2O2 ([6]; human recombinant VR1, 3 min incubation in antagonist, dose dependent): completely abolished
pIC50 ([6]; recombinant human VR1, PMA at low pH, Ca2+ influx, read-out: IC50, PKC phosphorylation at low pH): 7.15
pIC50 ([6]; recombinant human VR1, stimulus 0.015% H2O2, Ca2+ influx, read-out: IC50, H2O2 reactive oxygen species): 7.41
pIC50 ([6]; recombinant human VR1, stimulus anandamide 10 μM, Ca2+ influx, read-out: IC50, Anandamide): 7.39
pIC50 [6, 10]: 7.64 and 7.40
ED50 ([4]; reversal of hyperalgesia, read-out: CgHP ED50): 0.276 mg/kg
increase in intracellular Ca2+ caused by acidic solutions, anandamide, PMA at low pH and H2O2 ([7]; rat recombinant VR1, 3 min incubation in antagonist, dose dependent): completely abolished
pIC50 ([7]; recombinant rat VR1, PMA at low pH, Ca2+ influx, read-out: IC50, PKC phosphorylation at low pH): 7.33
pIC50 ([7]; recombinant rat VR1, stimulus 0.015% H2O2, Ca2+ influx, read-out: IC50, H2O2): 7.48
pIC50 [7, 11]: 7.42
pIC50 ([7]; recombinant rat VR1, stimulus low pH (pH 5.9), Ca2+ influx, read-out: IC50, Low pH): 6.77
Estimated pA2 [1]: 8.0 +/− 0.02
pKi [2]: 8.47

O=C(Nc1cccc2c[n+]([O-])ccc12)NC1CCc2cc(Cl)ccc2C1Cc1ccccc1 (centres unmarked) [Compound 106]
pKi [3]: 5.55
ED50 [4, 9]: 0.027 mg/kg
% of the initial CAP response in presence of 1 uM CAP [5]: 2%
% of the initial CAP response in presence of 10 uM CAP [5]: 11%
pKi [2]: 8.07

CCCCCCCCCCCCCC(=O)O[C@@H]1[C@@H](C)[C@@]2(O)[C@@H](C=C(CO)C[C@]3(O)C(=O)C(C)=C[C@@H]23)[C@@H]2C(C)(C)[C@]12OC(C)=O [PMA, phorbol-12-myristate-13-acetate, reference compound]
pEC50 ([6]; human recombinant VR1, increase in intracellular Ca2+, read-out: EC50 for PMA): 7.05
pEC50 ([7]; rat recombinant VR1, increase in intracellular Ca2+, read-out: EC50 for PMA): 7.05

Cl.Cl.Cl.Cl.Cl.Cl.N.N.N.N.N.N.N.N.N.N.N.N.N.N.[O-2].[O-2].[Ru+3].[Ru+3].[Ru+4] [Ruthenium Red, ruthenium red, reference compound]
pIC50 ([6]; recombinant human VR1, stimulus 300 nM PMA, Ca2+ influx, read-out: IC50, PKC phosphorylation): 6.30
pIC50 [6, 10]: 6.30
pIC50 ([7]; recombinant rat VR1, stimulus 300 nM PMA, Ca2+ influx, read-out: IC50, PKC phosphorylation): 6.52
pIC50 [7, 11]: 5.73

COc1ccc2c3c1O[C@H]1[C@@H](O)C=C[C@H]4[C@@H](C2)N(C)CC[C@@]341 [codeine]
number of capsaicin-induced cough responses (mean ±SEM) [8]: 0.58±0.15 coughs
